One test relates to MRSA 43300 biofilm. In words: Biofilm inhibition, crystal violet assay. The format is cell-based, Staphylococcus aureus. The note with it: 30 h. As to the method:
(§1) A standard static crystal violet assay was used to quantify biofilm inhibition.^45 Cultures of S. aureus or S. epidermidis were grown overnight in TSBG (tryptic soy broth with 5% glucose) at 37° C. with shaking. These cultures were used to inoculate fresh TSBG to a calculated optical density of 0.01 at 600 nm (OD600). […] Untreated aliquots were used as a positive control and water served as a negative control. 100 μl of these suspensions were added to the wells of a 96-well polyvinylchloride microtiter plate. […] After incubation, media was discarded and the plates were washed with water to remove non-adherent cells. Adherent biofilms were stained with 110 μl of crystal violet (0.1% in water) and incubated at room temperature for thirty minutes. The crystal violet staining solution was discarded and plates were washed with water to remove excess stain. The resulting stained biofilms were solubilized with 200 μL of 95% ethanol for 10 minutes. 125 μl of the ethanol solutions were transferred to a clear polystyrene microtiter plate for evaluation. Absorbance at 540 nm was recorded using a BioTek Synergy H1 microplate reader. The absorbance of the negative control lanes was subtracted from the experimental values to account for background staining. Percent inhibition was calculated by comparison of the absorbance values of control versus treated wells under identical conditions.
(§2) Antibiotic resistance and biofilm formation share similar regulatory mechanisms. […] Biofilm inhibition was first assessed in S. aureus 43300, a methicillin-resistant strain (see Table 18). As described in Materials and Methods, a standard crystal violet assay was used to assess biofilm inhibition by the tested compounds. The IC50 is described as the compound concentration required to inhibit 50% of biofilm formation. The standard deviation is calculated from at least 3 independent experiments.

Test [1] relates to S. aureus USA100 (MRSA). Briefly: Antibiotic repotentiation (antibiotic MIC with/without compound). It is filed as cell-based, Staphylococcus aureus. The conditions noted are these: +50 μM compound, S. aureus USA100 (MRSA). As to the method: (§3) The overnight culture was diluted into fresh CAMHB to a concentration of 5×10^5 CFU/ml. […] On the same plate, a standard microdilution MIC with the tested antibiotics and no added compound was also performed to compare the antibiotic MIC in the presence and absence of compound. […] Fold reductions were calculated by dividing the MIC of the antibiotic without compound by the MIC of the antibiotic in the presence of compound.

The subject of test [2] is S. aureus NR-49120 (VRSA). The test is described as above. The conditions noted are these: +50 μM compound, S. aureus NR-49120 (VRSA). The format is cell-based, Staphylococcus aureus. The procedure: as §3
Test [3] concerns various S. aureus strains. Briefly: microbe, parasite or virus in culture. The note with it: Staphylococcus aureus, read-out: MICs.
Test [4] has as its system S. aureus NR-49120 (VRSA). In words: microbe, parasite or virus in culture. The conditions noted are these: Staphylococcus aureus, 18 h.
Experimental: Minimum inhibitory concentrations were determined using a standard serial broth microdilution method. […] Mid-log-phase cultures were diluted to a concentration of approximately 5×10^5 CFU/ml in cation-adjusted Mueller-Hinton broth (CAMHB). Wells 2-11 of a 96-well polyvinylchloride microtiter plate were inoculated with 100 μl of bacterial suspension. 100 μl of uninnoculated CAMHB was added to well 12 to serve as a negative control. The top wells were inoculated with 200 μl of bacterial suspension with either antibiotics or compounds added. Serial dilutions were performed in wells 2-10, leaving well 11 to serve as the positive control. The microtiter plates were covered with Press-n-Seal and incubated at 37° C. for 18 hours without agitation. Plates were scored by visual detection of well turbidity.
For test [5], the system named is S. aureus NR-50109 biofilm. Briefly: Biofilm inhibition, crystal violet assay. It is filed as cell-based. The note with it: Staphylococcus aureus, NR50109BIOFILM, S. aureus NR-50109 (methicillin and vancomycin resistant), 30 h. The procedure: as §1, §2
(§4) The biofilm inhibition activity of loratadine was further explored in other strains of S. aureus. Loratadine was capable of inhibiting biofilm formation in all tested strains of S. aureus, including methicillin-resistant and vancomycin-resistant strains.

Another test deals with S. aureus 29213 biofilm. In words: Biofilm inhibition, crystal violet assay. The format is cell-based. The note with it: Staphylococcus aureus, 30 h. As to the method:
as §1, §2, §4

Another test has as its system S. aureus USA300 biofilm. In words: Biofilm inhibition, crystal violet assay. It is filed as cell-based. The note with it: Staphylococcus aureus, S. aureus USA300 (MRSA), 30 h. The procedure: as §1, §2, §4
The test system of another test is S. aureus USA100 biofilm. In words: Biofilm inhibition, crystal violet assay. The format is cell-based. The conditions noted are these: Staphylococcus aureus, S. aureus USA100 (MRSA), 30 h. The procedure: as §1, §2, §4
For test [6], the system named is S. aureus NR-49120 biofilm. Briefly: Biofilm inhibition, crystal violet assay. It is filed as cell-based. The note with it: Staphylococcus aureus, NR49120BIOFILM, S. aureus NR-49120 (methicillin and vancomycin resistant), 30 h. The procedure:
as §1, §2, §4

For test [7], the system named is S. aureus USA300 (MRSA). Briefly: Antibiotic repotentiation (antibiotic MIC with/without compound). The note with it: +50 μM compound, S. aureus USA300 (MRSA). The format is cell-based, Staphylococcus aureus.
The subject of the next test is S. aureus 43300 (MRSA). The description is as above. It is filed as cell-based, Staphylococcus aureus. The note with it: +50 μM compound.
Test [8] relates to S. aureus USA100 (MRSA). Briefly: microbe, parasite or virus in culture. It is filed as cell-based, Staphylococcus aureus. The conditions noted are these: Staphylococcus aureus, compound alone, CAMHB, 18 h.
Another test deals with S. aureus ATCC 29213. Briefly: Minimum inhibitory concentration, broth microdilution. The format is cell-based. The conditions noted are these: Staphylococcus aureus, ATCC29213; compound alone; S. aureus ATCC 29213; CAMHB, 18 h; read-out: MIC. As to the method: (§5) The compounds were then analyzed for antibiotic repotentiation activity. […] The tested strains included USA300, which is a common and particularly virulent strain of community-acquired MRSA.

Test [9] relates to S. aureus ATCC 43300 (MRSA). The test is described as above. The conditions noted are these: Staphylococcus aureus; compound alone; S. aureus ATCC 43300 (MRSA); CAMHB, 18 h; read-out: MIC. It is filed as cell-based, Staphylococcus aureus. As to the method: as §5
The subject of test [10] is S. aureus USA300 (MRSA). Described as above. It is filed as cell-based, Staphylococcus aureus. The conditions noted are these: Staphylococcus aureus; compound alone; S. aureus USA300 (MRSA); CAMHB, 18 h; read-out: MIC. As to the method: as §5
The subject of test [11] is S. epidermidis ATCC 49461 biofilm. In words: Biofilm inhibition, crystal violet assay. The format is cell-based, Staphylococcus epidermidis. The conditions noted are these: Staphylococcus epidermidis, ATCC49461, 30 h, read-out: Inhibition of biofilm formation IC50.

From patent US12115208B2, “Small-molecule adjuvants for antibiotics to address antibiotic resistance” (HIGH POINT UNIVERSITY, priority 2017, dated 2024) come the findings set out here.

As usually defined, the IC50 is the midpoint of a concentration-inhibition curve.

For the molecule `CCOC(=O)N1CCC(=C2c3ccc(Cl)cc3CCc3cccnc32)CC1` [Loratadine, ethyl 4-(8-chloro-5,6-dihydrobenzo[1,2]cyclohepta[2,4-b]pyridin-11-ylidene)piperidine-1-carboxylate], the IC50 worked out at 11.5 µM in the test with MRSA 43300 biofilm; 11.4 µM in the test with MRSA 43300 biofilm (Staphylococcus aureus, MRSA); 19.1 ± 2.87 µM in test [5]; 25.9 ± 2.36 µM in the test with S. aureus 29213 biofilm; 32.8 ± 5.9 µM with S. aureus USA300 biofilm; 22.2 ± 6.51 µM in the test on S. aureus USA100 biofilm. Also, the IC50 in test [6] came out at 59.9 ± 1.29 µM; in test [11], 25.1 ± 3.65 µM. Moreover, the “Oxacillin MIC” value with S. aureus USA100 (MRSA) [1] stood at 0.5 µg/mL; in [2], 16 µg/mL; in the test on S. aureus USA300 (MRSA) [7] it was 0.5 µg/mL; in the test with S. aureus 43300 (MRSA) (S. aureus ATCC 43300 (MRSA)), 1 µg/mL. Also, the “Fold Reduction” value in the test with S. aureus USA100 (MRSA) [1] (oxacillin MIC) amounted to 512; in test [2] (oxacillin MIC), 8; in the test with S. aureus USA300 (MRSA) [7] (oxacillin MIC), 64; in the test with S. aureus 43300 (MRSA) (oxacillin MIC, S. aureus 43300 (MRSA)) it was 32. Further, the MIC (in test [3]; in test [4]; with S. aureus USA100 (MRSA) [8]; in the test with S. aureus ATCC 29213; in [9]; with S. aureus USA300 (MRSA) [10]) was over 200 µM each time.
